Assays:
UGT1A10 = molecular target: T1, UGT1A10 (Homo sapiens, UniProt Q9HAW8); test: Substrate glucuronidation by recombinant UGT1A10; settings: 7-HFC 50 μM
T1 sequence (Q9HAW8 26-530): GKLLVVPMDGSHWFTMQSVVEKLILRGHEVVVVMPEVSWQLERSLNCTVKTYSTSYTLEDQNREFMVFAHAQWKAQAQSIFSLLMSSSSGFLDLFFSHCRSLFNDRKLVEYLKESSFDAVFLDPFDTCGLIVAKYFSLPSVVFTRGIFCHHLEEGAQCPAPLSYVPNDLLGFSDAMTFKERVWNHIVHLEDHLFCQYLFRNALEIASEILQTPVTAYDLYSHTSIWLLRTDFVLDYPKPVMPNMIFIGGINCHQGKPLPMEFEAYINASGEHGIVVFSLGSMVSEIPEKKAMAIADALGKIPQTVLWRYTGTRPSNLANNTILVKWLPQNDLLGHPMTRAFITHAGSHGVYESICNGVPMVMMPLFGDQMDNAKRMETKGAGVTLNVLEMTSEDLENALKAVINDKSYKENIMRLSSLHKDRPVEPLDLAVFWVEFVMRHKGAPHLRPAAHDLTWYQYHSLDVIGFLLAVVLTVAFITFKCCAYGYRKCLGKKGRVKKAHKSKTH

UGT1A3 [1] = molecular target: T2, UGT1A3 (Homo sapiens, UniProt P35503); test: Substrate glucuronidation by recombinant UGT1A3; settings: for 7-HFC glucuronidation rate: 7-HFC 50 μM
T2 sequence (P35503 29-534): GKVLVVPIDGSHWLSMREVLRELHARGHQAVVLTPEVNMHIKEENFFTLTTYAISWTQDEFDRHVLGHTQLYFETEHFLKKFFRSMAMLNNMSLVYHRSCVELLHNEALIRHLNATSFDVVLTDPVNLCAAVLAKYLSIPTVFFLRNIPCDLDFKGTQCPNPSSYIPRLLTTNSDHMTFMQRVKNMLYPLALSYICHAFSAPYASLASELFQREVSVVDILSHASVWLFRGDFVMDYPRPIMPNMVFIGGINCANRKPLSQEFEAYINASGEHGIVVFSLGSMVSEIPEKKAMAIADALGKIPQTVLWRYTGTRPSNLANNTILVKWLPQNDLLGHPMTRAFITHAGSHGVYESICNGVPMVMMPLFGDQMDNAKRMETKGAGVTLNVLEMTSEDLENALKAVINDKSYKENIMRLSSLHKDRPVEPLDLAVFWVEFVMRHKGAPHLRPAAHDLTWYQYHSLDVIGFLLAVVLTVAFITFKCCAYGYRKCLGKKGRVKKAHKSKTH

[2] = healthy volunteers, concomitant diflunisal; cited from earlier work
UGT1A3 [3] = molecular target: T2, UGT1A3
UGT1A6 = molecular target: T3, UGT1A6 (Homo sapiens, UniProt P19224)
T3 sequence (P19224 27-532): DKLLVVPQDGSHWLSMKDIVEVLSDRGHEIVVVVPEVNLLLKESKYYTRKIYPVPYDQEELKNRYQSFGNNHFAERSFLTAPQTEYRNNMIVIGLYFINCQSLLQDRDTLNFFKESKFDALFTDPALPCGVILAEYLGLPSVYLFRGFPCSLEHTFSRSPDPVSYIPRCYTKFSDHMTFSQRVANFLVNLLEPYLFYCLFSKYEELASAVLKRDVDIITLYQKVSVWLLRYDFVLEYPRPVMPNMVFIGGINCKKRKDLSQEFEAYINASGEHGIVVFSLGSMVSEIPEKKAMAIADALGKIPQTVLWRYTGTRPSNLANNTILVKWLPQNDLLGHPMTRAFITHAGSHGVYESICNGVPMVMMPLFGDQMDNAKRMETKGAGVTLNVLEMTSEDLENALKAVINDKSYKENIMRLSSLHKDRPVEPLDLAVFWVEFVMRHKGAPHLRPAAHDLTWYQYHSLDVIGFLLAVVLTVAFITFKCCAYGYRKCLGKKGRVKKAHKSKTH

UGT1A9 = molecular target: T4, UGT1A9 (Homo sapiens, UniProt O60656); settings: 30 min, 100 μM, pH 7.5
T4 sequence (O60656 26-530): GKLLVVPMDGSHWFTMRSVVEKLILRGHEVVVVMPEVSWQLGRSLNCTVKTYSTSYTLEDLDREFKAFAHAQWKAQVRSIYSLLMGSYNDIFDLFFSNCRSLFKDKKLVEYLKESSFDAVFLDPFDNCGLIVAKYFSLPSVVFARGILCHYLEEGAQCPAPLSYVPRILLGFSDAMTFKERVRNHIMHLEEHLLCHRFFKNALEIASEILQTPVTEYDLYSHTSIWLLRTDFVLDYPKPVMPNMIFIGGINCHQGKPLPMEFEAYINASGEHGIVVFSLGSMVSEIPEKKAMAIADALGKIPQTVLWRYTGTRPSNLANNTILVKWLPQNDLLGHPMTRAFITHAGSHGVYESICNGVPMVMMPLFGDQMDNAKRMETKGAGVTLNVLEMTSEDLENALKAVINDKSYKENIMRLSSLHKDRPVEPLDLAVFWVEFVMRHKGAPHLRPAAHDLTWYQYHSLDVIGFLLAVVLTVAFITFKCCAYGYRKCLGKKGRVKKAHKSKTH

UGT1A1 = molecular target: T5, UGT1A1 (Homo sapiens, UniProt P22309)
T5 sequence (P22309 26-533): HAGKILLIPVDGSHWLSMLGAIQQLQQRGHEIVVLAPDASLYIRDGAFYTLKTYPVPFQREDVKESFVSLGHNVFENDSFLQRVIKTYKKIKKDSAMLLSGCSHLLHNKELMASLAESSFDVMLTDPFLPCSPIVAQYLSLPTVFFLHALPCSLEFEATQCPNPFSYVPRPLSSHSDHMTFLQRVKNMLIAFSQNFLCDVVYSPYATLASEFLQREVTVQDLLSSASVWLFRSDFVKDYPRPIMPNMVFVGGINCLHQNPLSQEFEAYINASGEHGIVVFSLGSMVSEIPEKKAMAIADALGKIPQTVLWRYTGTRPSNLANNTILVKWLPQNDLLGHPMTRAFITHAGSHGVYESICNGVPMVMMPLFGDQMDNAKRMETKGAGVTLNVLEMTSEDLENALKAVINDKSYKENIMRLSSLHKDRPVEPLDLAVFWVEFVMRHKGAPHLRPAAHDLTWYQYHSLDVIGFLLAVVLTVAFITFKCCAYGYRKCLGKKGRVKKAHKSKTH

## O=c1cc(C(F)(F)F)c2ccc(O)cc2o1 [7-HFC, 7-hydroxy-4-(trifluoromethyl)coumarin]
UGT1A10; UGT1A10 Bacculosomes 250 μg/ml
  7-HFC glucuronidation rate: 553 ± 40 pmol/min/mg protein
UGT1A10; UGT1A10 Supersomes 250 μg/ml
  7-HFC glucuronidation rate: 460 ± 2 pmol/min/mg protein
UGT1A3 [1]; UGT1A3
  7-HFC glucuronidation rate in Panvera Bacculosomes as % of Gentest Supersomes: 2%
UGT1A3 [1]; UGT1A3 Bacculosomes 250 μg/ml
  7-HFC glucuronidation rate: 17 ± 1 pmol/min/mg protein
UGT1A3 [1]; UGT1A3 Supersomes 250 μg/ml
  7-HFC glucuronidation rate: 952 ± 82 pmol/min/mg protein

## O=C(O)c1cc(-c2ccc(F)cc2F)ccc1O [Diflunisal, reference compound]
[2]
  decrease in indomethacin clearance: 70%

## CC(CCc1ccccc1)NCC(O)c1ccc(O)c(C(N)=O)c1 (stereo not drawn) [Labetalol, labetalol]
UGT1A3 [3]
  labetalol metabolism, in words: No detectable metabolism was observed
UGT1A6
  labetalol metabolism, in words: No detectable metabolism was observed
UGT1A9
  LG1/LG2: 0.8
  labetalol metabolite LG1, peak area normalized to internal standard: 38 (1)
  labetalol metabolite LG2, peak area normalized to internal standard: 49 (1)
UGT1A1
  labetalol metabolism, in words: No detectable metabolism was observed
